Active and inactive are the calls of the source. No cut-off for these calls is given here.
How the values were obtained:
Bacillus subtilis [1] = test: Antimicrobial activity against Bacillus subtilis at 50 ug/disk; type: functional, organism-based
Bacillus subtilis [2] = test: Antimicrobial activity against Bacillus subtilis at 5 ug/disk; type: functional, organism-based

Row | SMILES | Activity (Bacillus subtilis [1]) | Activity (Bacillus subtilis [2])
1 | C=C1CCCC(C)(C)[C@@H]2CC[C@@](C)([C@@H]3[C@H]4CC(=O)O[C@H]4O[C@H]3O)[C@H]12 | Active | 
2 | C=C1CCCC(C)(C)[C@@H]2CC[C@@](C)([C@@H]3[C@@H]4OC(=O)C[C@H]3[C@H](OC(C)=O)O4)[C@H]12 |  | Active
3 | C=C([C@@H]1[C@@H]2OC(=O)C[C@H]1[C@H](OC(C)=O)O2)[C@H]1CC[C@H]2C(C)(C)CCCC(=C)[C@]12C |  | Active

Source: ChEMBL document CHEMBL1158941, “Diterpenes from the Pohnpeian marine sponge Chelonaplysilla sp” (J Nat Prod, 1991)
